# Measurements as given in PMC5449454, “Anti-Double-Stranded DNA IgG Participates in Renal Fibrosis through Suppressing the Suppressor of Cytokine Signaling 1 Signals” (Frontiers in Immunology, 2017).
# Entries after “also recorded” stand apart in the source; their conditions may differ.
# Tests used:
# [1] = tested on: glomerular endothelial cells; assay: Cell viability (PrestoBlue), glomerular endothelial cells; assay type: cell-based, murine; conditions: D-form ALW 1 µg/ml, 2 days
# Procedure: (§1) By using a HiTrap purification kit (GE Healthcare, Port Washington, NY, USA) ([8]), anti-dsDNA IgG was purified from the culture supernatants of murine WJ31 hydridoma clone (IgG2a; Jieqing Biotech). Control murine IgG (IgG2a; Jieqing Biotech) was verified by enzyme-linked immunosorbent assay (ELISA) to determine that there was no binding to DNA antigen (data not shown). Cells were starved routinely before the 2-day stimulation of anti-dsDNA IgG or control IgG (2 µg/ml). In some experiments, mesangial cells were stimulated with anti-dsDNA IgG (2 µg/ml) that was premixed with D-form (ALWPPNLHAWVP) or scrambled (PLPHNPWVLAAW) ALW peptide (1 µg/ml). The cell viability of three types of cells was measured using PrestoBlue viability reagent (Life Technologies, Carlsbad, CA, USA).
# Mesangial Glomerular Tubular cells endothelial epithelial
# Supplementary Figure S7. Cell viability assays of kidney cells. (A) Murine cells were cultured in vitro, and received control or anti-dsDNA IgG stimulation (2 µg/ml, 2 days). (B) Similarly, these cells were also stimulated with scrambled or D-form ALW peptide (1 µg/ml, 2 days). The cell viability was measured using PrestoBlue viability reagent. Data were from three independent experiments. Data points and error bars […]
# (also on this page, place not known: µ g/ml,2 µ g/ml,2 Cell viability (%) Cell viability (%))
# [2] = tested on: SOCS1, JAK2 and STAT1 in mesangial cells; assay: SOCS1/JAK2/STAT1 proteins (IF, Western blotting), mesangial cells; assay type: cell-based, murine; conditions: anti-dsDNA IgG 2 µg/ml premixed with peptide 1 µg/ml, 2 days
# Procedure: Immunofluorescence was carried out for both IgG deposition and SOCS1 expression in frozen sections. Routinely processed sections were incubated with rabbit anti-mouse SOCS1 and then fluorescein isothiocyanate (FITC)-conjugated goat anti-rabbit IgG (2 µg/ml; Southern Biotech, Birmingham, AL, USA) in order, or directly with goat anti-mouse IgG-FITC (Southern Biotech) alone. Sections were viewed under a digital fluorescent microscope (Carl Zeiss, Jena, Germany).
# (§2) Immortal murine mesangial cells and glomerular endothelial cells (Jieqing Biotech, Wuhan, China) were cultured in RPMI 1640 medium supplemented with 10% fetal bovine serum ([8], [33]). Immortal murine proximal tubular epithelial cells (kindly provided by Dr. Cheng Pan, Wuhan University, China) were cultured in Dulbecco’s modified Eagle’s medium as described previously ([34]).
# as §1
# Fresh tissues and cell cultures were extracted for lysates with the addition of protease inhibitor cocktail (Thermo Scientific, Waltham, MA, USA). […] The band intensities were quantitated by ImageJ 1.61u software (National Institutes of Health, Bethesda, MD, USA) and normalized to β-actin values accordingly. The intensities of blank groups were set as 1 (baseline), and the relative intensities were calculated in other groups.
# mesangial cells = assay: Real-time PCR, mesangial cells; assay type: cell-based, murine; conditions: anti-dsDNA IgG 2 µg/ml premixed with peptide 1 µg/ml, 2 days
# Procedure: as §2, §1
# As previously described ([8]), total RNA was extracted from fresh tissues or cultured cells, followed by reverse transcription. The 7900HT Fast PCR System (Applied Biosystems, Carlsbad, CA, USA) was used for PCR, and SYBR Green Master Mixes (Invitrogen, Grand Island, NY, USA) was used as fluorescent dye. The sequences of primers (Jieqing Biotech) are listed in Table S2 in Supplementary Material.
# glomeruli of SCID mice = assay: Glomerular IgG deposition (IHC and IF), SCID mice; assay type: in vivo; conditions: i.v., anti-dsDNA IgG mixed with D-form ALW before injection, n = 5, versus anti-dsDNA IgG alone
# Text: Renal biopsies were obtained from patients with LN (n = 7), who had serum positivity of anti-dsDNA IgG (Table S1 in Supplementary Material). The diagnosis of LN was made based on the histological features of renal biopsies. For normal human controls, sera and non-lesional tissues were taken from patients (n = 5) who underwent surgical nephrectomy due to renal cell carcinoma or renal rupture (Table S1 in Supplementary Material). There was no statistical difference in term of age between the LN patients and the controls (p > 0.05). […] The MRL/lpr and MRL/MpJ mice (female, 12 or 24 weeks old, n = 5 each group) as well as SCID mice (female, 8 weeks old, n = 5 each group) were bred in the animal facility of Xi’an Jiaotong University Health Science Center. Urine, sera, and renal tissues were harvested from MRL/lpr and MRL/MpJ mice. Proteinuria was quantitated by the Coomassie brilliant blue method ([32]). All data about MRL/lpr and MRL/MpJ mice referred to that at age of 24 weeks unless otherwise noted. These SCID mice received intravenous injections of anti-dsDNA or control IgG at a dose of 100 µg twice weekly, which lasted for 4 weeks (n = 5 each group). Then, both serum and kidney samples were collected from SCID mice. This study was carried out in accordance with the recommendations of the guidelines of the Hospital Research Ethics Committee with written informed consent from all subjects. […]
sequence,measurement,setting,value
"ALWPPNLHAWVP [D-form ALW, ALW peptide with two terminal residues A and P replaced with D-form ones]",cell viability,[1],no changes
same,"JAK2 protein, ALW plus anti-dsDNA IgG (consistent with mRNA decrease)",[2],consistent changes
same,"SOCS1 protein level, ALW plus anti-dsDNA IgG",[2],increased
same,"STAT1 protein, ALW plus anti-dsDNA IgG (consistent with mRNA decrease)",[2],consistent changes
same,"CTGF mRNA expression level, ALW plus anti-dsDNA IgG",mesangial cells,significantly reduced
same,"Fn14 mRNA expression level, ALW plus anti-dsDNA IgG",mesangial cells,significantly reduced
same,"JAK2 mRNA level, ALW plus anti-dsDNA IgG",mesangial cells,decreased
same,"PDGFB mRNA expression level, ALW plus anti-dsDNA IgG",mesangial cells,significantly reduced
same,"SOCS1 mRNA expression level, ALW plus anti-dsDNA IgG",mesangial cells,did not affect
same,"STAT1 mRNA level, ALW plus anti-dsDNA IgG",mesangial cells,decreased
same,"glomerular IgG deposition, ALW plus anti-dsDNA IgG",glomeruli of SCID mice,less IgG deposition; also recorded: significant reduction
